How the values were obtained:
[1] = preservative in nasal sprays and nebulization; cited from earlier work
influenza virus = conditions: cited from earlier work
SARS-COV-2 = conditions: two weeks of receiving the quercetin treatment; cited from earlier work
vaccinia virus = conditions: depletion of plasma membrane cholesterol in host cells; cited from earlier work
cell plasma membrane = assay: Cells exposed to increasing concentration of M-βCD to deplete plasma membrane cholesterol: phospholipid uptake and membrane fusion proteins; format: cell-based
pseudorabies virus = conditions: cited from earlier work
[2] = increasing concentration of M-βCD, cholesterol depletion

In the case of `OCc1ccccc1` [phenylcarbinol], the “adverse / toxic effects” value [1] is given as “toxic effects”.
In the case of `O=c1c(O)c(-c2ccc(O)c(O)c2)oc2cc(O)cc(O)c12` [quercetin], the “therapeutic effects against influenza virus” value (influenza virus) is listed as “therapeutic effects” and the “SARS-COV-2 infected patients cleared of the virus” value (SARS-COV-2) is listed as 98%.
For Benzalkonium chloride, the “adverse / toxic effects” value [1] is given as “sino-nasal mucosal injury, nasal squamous metaplasia, ciliary dysmotility, genotoxicity, and other adverse effects”.
For methyl beta cyclodextrin [M-βCD], the “entry of vaccinia virus into cells” value (vaccinia virus) is listed as “significantly reduces”, the “uptake of phosphatidyl serine by the cell plasma membrane” value (cell plasma membrane; [2]) is listed as “loss in the uptake” and the “uptake of phosphatidylethanolamine by the cell plasma membrane” value (cell plasma membrane; [2]) is listed as “remain unchanged”. The “membrane fusion proteins syntaxin and SNAP25 at the plasma membrane” value (cell plasma membrane; loss of cholesterol from the cell plasma membrane) was “depletion of membrane fusion proteins” and the “entry of pseudorabies virus into cells” value (pseudorabies virus) was “significantly reduces”.
